What was measured:
Type in all cases: in vivo
[1] = system: Western Corn Rootworm (Diabrotica virgifera virgifera); experiment: CE.2 Western corn rootworm assay, treated soil; conditions: second-instar larvae, 3 days after infestation
Description: (§1) The activity summarized in the tables hereinbelow are given as percentage of mortality in comparison with untreated control
The active compound was applied in acetone at rates of 5 and 50 ppm a.i./soil (w/w). Treatments were applied in solution to sifted, North Carolina loamy sand (Sandhill soil) in a plastic bag. Treatments were thoroughly incorporated by sealing and shaking each bag by hand and allowing the solution to soak through the soil mass for at least 10 minutes before unsealing. The bags were then kept open in a fume hood overnight to evaporate the solvent from the soil.
One day after treatment (DAT) distilled water for moisture and water-soaked millet seed (Panicum miliaceum ‘white millet’) as a food source were added to each bag and mixed in thoroughly. 11 cm^3 of millet and soil mixture were dispensed into a 1 oz. plastic cup. Each cup was infested with 10 western corn rootworm second-instar larvae. Each cup or group of four cells was a replicate, and replication was 3×. The test was maintained in incubators at 26° C. in the dark. Mortality was evaluated 3 days after infestation (DAI) and mean percent mortality was calculated.

[2] = system: Green Peach Aphid (Myzus persicae); experiment: B.3 Green peach aphid, systemic, artificial diet in 96-well plates; conditions: 72 h, adult aphids, 3 days, read-out: mortality in comparison with untreated controls
Text: For evaluating control of green peach aphid (Myzus persicae) through systemic means the test unit consisted of 96-well-microtiter plates containing liquid artificial diet under an artificial membrane.
The compounds were formulated using a solution containing 75% v/v water and 25% v/v DMSO. Different concentrations of formulated compounds were pipetted into the aphid diet, using a custom built pipetter, at two replications.
After application, 5 to 8 adult aphids were placed on the artificial membrane inside the microtiter plate wells. The aphids were then allowed to suck on the treated aphid diet and incubated at about 23+1° C. and about 50+5% relative humidity for 3 days. Aphid mortality and fecundity was then visually assessed.

[3] = system: Vetch Aphid (Megoura Viciae); experiment: B.7 Vetch aphid, broad bean leaf disks in 24-well plates; conditions: foliar, 120 h, sprayed leaf disks, adult aphids, 5 days, read-out: mortality in comparison with untreated controls
Description: For evaluating control of vetch aphid (Megoura viciae) through contact or systemic means the test unit consisted of 24-well-microtiter plates containing broad bean leaf disks.
The compounds were formulated using a solution containing 75% v/v water and 25% v/v DMSO. Different concentrations of formulated compounds were sprayed onto the leaf disks at 2.5 μl, using a custom built micro atomizer, at two replications.
After application, the leaf disks were air-dried and 5 to 8 adult aphids placed on the leaf disks inside the microtiter plate wells. The aphids were then allowed to suck on the treated leaf disks and incubated at about 23+1° C. and about 50+5% relative humidity for 5 days. Aphid mortality and fecundity was then visually assessed.

[4] = system: Diamond Back Moth (Plutella xylostella); experiment: B.2 Diamond back moth, cabbage leaf dip; conditions: foliar, dipped cabbage leaves, 3rd instar larvae, 72 hours after treatment, read-out: mortality in comparison with untreated controls
Description: The active compound is dissolved at the desired concentration in a mixture of 1:1 (vol:vol) distilled water:aceteone. Surfactant (Alkamuls® EL 620) is added at a rate of 0.1% (vol/vol).The test solution is prepared at the day of use.
Leaves of cabbage were dipped in test solution and air-dried. Treated leaves were placed in petri dish eslined with moist filter paper and inoculated with ten 3rd instar larvae. Mortality was recorded 72 hours after treatment. Feeding damages were also recorded using a scale of 0-100%.

[5] = system: Cowpea Aphid (Aphis craccivora); experiment: B.1 Cowpea aphid, sprayed potted cowpea plants; conditions: assessed after 72 hours, read-out: mortality in comparison with untreated controls
Description: The active compound is dissolved at the desired concentration in a mixture of 1:1 (vol:vol) distilled water:acetone. Surfactant (Alkamuls® EL 620) is added at a rate of 0.1% (vol/vol). The test solution is prepared at the day of use.
(§2) Potted cowpea plants were colonized with approximately 50 to 100 aphids of various stages by manually transferring a leaf tissue cut from infested plant 24 hours before application. Plants were sprayed after the pest population has been recorded. Treated plants are maintained on light carts at about 28° C. Percent mortality was assessed after 72 hours.

[6] = system: Boll Weevil (Anthonomus grandis); experiment: B.9 Boll weevil, insect diet with eggs in 96-well plates; conditions: 120 h, egg and larval mortality, 5 days, read-out: mortality in comparison with untreated controls
Description: For evaluating control of boll weevil (Anthonomus grandis) the test unit consisted of 96-well-microtiter plates containing an insect diet and 5-10 A. grandis eggs.
(§3) The compounds were formulated using a solution containing 75% v/v water and 25% v/v DMSO. Different concentrations of formulated compounds were sprayed onto the insect diet at 5 μl, using a custom built micro atomizer, at two replications.
After application, microtiter plates were incubated at about 25+1° C. and about 75+5% relative humidity for 5 days. Egg and larval mortality was then visually assessed.

[7] = system: Cowpea Aphid (Aphis craccivora); experiment: CE.1 Cowpea aphid, comparison with prior art compounds; conditions: for % activity (mortality of Cowpea aphid in %, vs. untreated control): sprayed cowpea plants, assessed after 72 hours
Description: as §1
The active compound was dissolved at the desired concentration in a mixture of 1:1 (vol:vol) distilled water:acetone. Surfactant (Alkamuls® EL 620) is added at a rate of 0.1% (vol/vol). The test solution was prepared at the day of use.
as §2

[8] = system: Mediterranean Fruitfly (Ceratitis capitata); experiment: CE.3 Mediterranean fruitfly, comparison with prior art compounds; conditions: 5 days; for Mediterranean fruitfly egg and larval mortality vs. untreated control (%): sprayed onto insect diet with eggs
Description: as §1
(§4) For evaluating control of Mediterranean fruitfly (Ceratitis capitata) the test unit consisted of microtiter plates containing an insect diet and 50-80 C. capitata eggs.
as §3
After application, microtiter plates were incubated at about 28±1° C. and about 80±5% relative humidity for 5 days. Egg and larval mortality was then visually assessed.

[9] = system: Orchid Thrips (Dichromothrips Corbetti); experiment: B.5 Orchid thrips, floral-immersion technique; conditions: dipped orchid flowers, adult thrips, 72 hours after treatment, read-out: mortality in comparison with untreated controls
Description: Dichromothrips corbetti adults used for bioassay were obtained from a colony maintained continuously under laboratory conditions. For testing purposes, the test compound is diluted in a 1:1 mixture of acetone:water (vol:vol), plus 0.01% vol/vol Alkamuls® EL 620 surfactant.
Thrips potency of each compound was evaluated by using a floral-immersion technique. Plastic petri dishes were used as test arenas. All petals of individual, intact orchid flowers were dipped into treatment solution and allowed to dry. Treated flowers were placed into individual petri dishes along with about 20 adult thrips. The petri dishes were then covered with lids. All test arenas were held under continuous light and a temperature of about 28° C. for duration of the assay. After 3 days, the numbers of live thrips were counted on each flower, and along inner walls of each petri dish. The percentmortality was recorded 72 hours after treatment.

[10] = system: Tobacco Budworm (Heliothis virescens); experiment: B.8 Tobacco budworm I, insect diet with eggs in 96-well plates; conditions: 120 h, egg and larval mortality, 5 days, read-out: mortality in comparison with untreated controls
Description: For evaluating control of tobacco budworm (Heliothis virescens) the test unit consisted of 96-well-microtiter plates containing an insect diet and 15-25 H. virescens eggs.
The compounds were formulated using a solution containing 75% v/v water and 25% v/v DMSO. Different concentrations of formulated compounds were sprayed onto the insect diet at 10 μl, using a custom built micro atomizer, at two replications.
(§5) After application, microtiter plates were incubated at about 28+1° C. and about 80+5% relative humidity for 5 days. Egg and larval mortality was then visually assessed.

[11] = system: Mediterranean Fruitfly (Ceratitis capitata); experiment: B.4 Mediterranean fruitfly, insect diet with eggs in microtiter plates; conditions: 120 h, egg and larval mortality, 5 days, read-out: mortality in comparison with untreated controls
Description: as §4, §3, §5

## CCS(CC)=NC(=O)c1cc(Cl)cc(C)c1NC(=O)c1cc(C(F)(F)F)nn1-c1ncccc1Cl [CC-2, reference compound]
[1]; 5 ppm a.i./soil (w/w)
  % activity (mortality of Western corn rootworm in %, vs. untreated control): 21%
[1]; 50 ppm a.i./soil (w/w)
  % activity (mortality of Western corn rootworm in %, vs. untreated control): 93%

## CC(C)S(=NC(=O)c1cc(Cl)cc(Cl)c1NC(=O)c1cc(C(F)(F)F)nn1-c1ncccc1Cl)C(C)C [S.1, 2-(3-chloro-2-pyridyl)-N-[2,4-dichloro-6-[(bis-2-propyl-λ^4-sulfanylidene)carbamoyl]phenyl]-5-(trifluoromethyl)pyrazole-3-carboxamide]
[2]
  mortality at 2500 ppm: > 75%
[3]
  mortality at 2500 ppm: > 75%
[4]
  mortality at 300 ppm: > 75%
[5]
  mortality at 300 ppm: > 75%
[6]
  mortality at 2500 ppm: > 95%
[7]; 100 ppm active ingredient
  % activity (mortality of Cowpea aphid in %, vs. untreated control): 100%
[7]; 300 ppm active ingredient
  % activity (mortality of Cowpea aphid in %, vs. untreated control): 100%
[7]; 500 ppm active ingredient
  % activity (mortality of Cowpea aphid in %, vs. untreated control): 100%
[7]; percent mortality after 72 hours
  activity against Cowpea aphid in comparison with comparative compound CC-3: superior activity
[1]; 5 ppm a.i./soil (w/w)
  % activity (mortality of Western corn rootworm in %, vs. untreated control): 100%
[1]; 50 ppm a.i./soil (w/w)
  % activity (mortality of Western corn rootworm in %, vs. untreated control): 100%
[8]; 1415 ppm active ingredient
  Mediterranean fruitfly egg and larval mortality vs. untreated control (%): 100%
[8]; 2500 ppm active ingredient
  Mediterranean fruitfly egg and larval mortality vs. untreated control (%): 100%
[9]
  mortality at 300 ppm: > 75%
[10]
  mortality at 2500 ppm: > 75%
[11]
  mortality at 2500 ppm: > 75%

## O=C(N=S1CCCC1)c1cc(Cl)cc(Cl)c1NC(=O)c1cc(C(F)(F)F)nn1-c1ncccc1Cl [S.3, 2-(3-chloro-2-pyridyl)-N-[2,4-dichloro-6-[(tetrahydro-λ^4-thiophenidene)carbamoyl]phenyl]-5-(trifluoromethyl)pyrazole-3-carboxamide]
[8]; egg and larval mortality
  activity against Mediterranean fruitfly in comparison with comparative compound CC-1: superior activity

## CCS(CC)=NC(=O)c1cc(Cl)cc(Cl)c1NC(=O)c1cc(C(F)(F)F)nn1-c1ncccc1Cl [S.6, N-[4,6-dichloro-2-[(diethyl-λ^4-sulfanylidene)carbamoyl]-phenyl]-2-(3-chloro-2-pyridyl)-5-(trifluoromethyl)pyrazole-3-carboxamide]
[2]
  mortality at 2500 ppm: > 75%
[3]
  mortality at 2500 ppm: > 75%
[4]
  mortality at 300 ppm: > 75%
[5]
  mortality at 300 ppm: > 75%
[6]
  mortality at 2500 ppm: > 95%
[1]; 5 ppm a.i./soil (w/w)
  % activity (mortality of Western corn rootworm in %, vs. untreated control): 100%
[1]; 50 ppm a.i./soil (w/w)
  % activity (mortality of Western corn rootworm in %, vs. untreated control): 100%
[9]
  mortality at 300 ppm: > 75%
[10]
  mortality at 2500 ppm: > 75%
